Reference: publication PMC10300102, “In vivo inhibition of nuclear ACE2 translocation protects against SARS-CoV-2 replication and lung damage through epigenetic imprinting” (Nature Communications, 2023)
Counter-ions that a name gives are not always drawn. Like-named read-outs stand apart in the source and are kept apart here.

Assay: In vitro monkey plasma assay
Format: in vitro ADME, cynomolgus monkey
Conditions: for remaining at 0.25 h, 2 µM: time 15 min; for remaining at 0.5 h, 2 µM: time 30 min; for remaining at 1 h, 2 µM: time 60 min; for remaining at 2 h, 2 µM: time 120 min
Experimental: Briefly, pooled frozen plasma was thawed at 37 °C prior to experiments. Plasma was centrifuged at 3720 x g for 5 min and any clots were removed. All blanks and working solutions were aliquoted on an Apricot automation workstation (2 μL/well of working solution (100 μM) with 98 μL plasma for NACE2i peptide (CP300638) and control compounds somatostatin acetate and procaine hydrochloride). All reaction plates containing mixtures of NACE2i, somatostatin acetate, and procaine hydrochloride and plasma were incubated at 37 °C in a water bath for 0, 15, 30, 60, 120, 240, and 360 min. Incubation was stopped with 4% H3PO4 and stop solution (200 ng/mL tolbutamide and 200 ng/mL labetalol in MeOH) to precipitate protein. Each plate was sealed and shaken for 20 min and then centrifuged at 3720 x g at 4 °C for 20 min. After centrifugation, the Apricot workstation was used to transfer 150 μL supernatant to each bioanalysis plate, which was then sealed and shaken for 10 min prior to LC-MS/MS analysis as per the manufacturer’s guidelines. LC: Shimadzu LC 30-AD, MS: QTRAP 6500 + , Autosampler: CTC PAL.

[1] = male, monkey, pooled plasma, cynomolgus monkey plasma, n=2
[2] = monkey, plasma (pooled, frozen), cynomolgus monkey plasma, n=2

| Compound | % Remaining (cynomolgus monkey plasma, time 0 min, n=2) [%] | remaining at 0.25 h, 2 µM [1] [%] | remaining at 0.5 h, 2 µM [1] [%] | remaining at 1 h, 2 µM [1] [%] | remaining at 2 h, 2 µM [1] [%] | remaining at 6 h, 2 µM (male, monkey, pooled plasma, cynomolgus monkey plasma, time 360 min, n=2, read-out: % Remaining) [%] | remaining at 6 h, 2 µM (male, monkey, pooled plasma, pooled male cynomolgus monkey plasma, 2 µL of 100 µM working solution + 98 µL plasma, 37 °C, 360 min, LC-MS/MS, read-out: % remaining in plasma after 360 min incubation) [%] | remaining at 0.25 h, 2 µM [2] [%] | remaining at 0.5 h, 2 µM [2] [%] | remaining at 1 h, 2 µM [2] [%] | remaining at 2 h, 2 µM [2] [%] | remaining at 4 h, 2 µM (monkey, plasma (pooled, frozen), cynomolgus monkey plasma, time 240 min, n=2) [%] | remaining at 6 h, 2 µM (monkey, plasma (pooled, frozen), cynomolgus monkey plasma, time 360 min, n=2, read-out: % Remaining) [%] | % remaining in plasma after 360 min incubation (pooled male cynomolgus monkey plasma, 2 µL of 100 µM working solution + 98 µL plasma, 37 °C, 360 min, LC-MS/MS) [%] |
| --- | --- | --- | --- | --- | --- | --- | --- | --- | --- | --- | --- | --- | --- | --- |
| CCN(CC)CCOC(=O)c1ccc(N)cc1 [procaine hydrochloride, reference compound] | 100 | 27.3 | 3.07 | 0.813 | 0.381 | 0.0209 | 0 | – | – | – | – | – | – | – |
| C[C@H](N)C(=O)NCC(=O)N[C@H]1CSSC[C@@H](C(=O)O)NC(=O)[C@H](CO)NC(=O)[C@H]([C@@H](C)O)NC(=O)[C@H](Cc2ccccc2)NC(=O)[C@H]([C@@H](C)O)NC(=O)[C@H](CCCCN)NC(=O)[C@H](Cc2c[nH]c3ccccc23)NC(=O)[C@H](Cc2ccccc2)NC(=O)[C@H](Cc2ccccc2)NC(=O)[C@H](CC(N)=O)NC(=O)[C@H](CCCCN)NC1=O [somatostatin acetate, reference compound] | – | – | – | – | – | – | – | 77.1 | 61.3 | 50.2 | 29 | 18.1 | 3.81 | 3.8 |
